Tests used:
TbSTT3B = assay: Kinetic assay with ssOST enzyme: in vitro glycosylation of acceptor peptide, UPLC readout; type: biochemical, Trypanosoma brucei; details: for completion of the glycosylation reaction: after an hour of incubation at room temperature, TbSTT3B
Experimental: In vitro glycosylation reactions were performed by mixing 50 nM purified TbSTT3A or 100 nM TbSTT3B protein, 15µM Phy-LLO or Dol20-LLO, 10 mM MnCl2, 150 mM NaCl, 20 mM HEPES pH 7.5, 0.035% DDM, 0.007% CHS and 20 µM of the acceptor peptide (for STT3A: 5CF-GSDANYTYTQ (SEQ ID No 33), for STT3B: 5CF-GSLANYTK (SEQ ID No 34)), […] 1 µL samples were taken at different time points and diluted in 10% ACN, 10 mM phosphate buffer pH 7. Samples were analyzed by reverse-phase chromatography using a UPLC Dionex UltiMate 3000 with an Accucore 150-C18 100 × 2.1 mm 2.6 µm column (Thermo Fisher Scientific)40. Peaks for glycopeptide and peptide were integrated using the Software ChromeleonTM, and the amount of produced glycopeptide was determined for each data point. Turnover rate determination was performed by fitting of the data to linear regression using PRISM software.

TbSTT3A = assay: as above; type: biochemical, Trypanosoma brucei; details: compared to Dol20-PP-GlcNAc2Man5 as donor; 50 nM TbSTT3A, 15 µM LLO, 20 µM 5CF-GSDANYTYTQ, 30°C; Figure 3A
Experimental: In vitro glycosylation reactions were performed by mixing 50 nM purified TbSTT3A or 100 nM TbSTT3B protein, 15µM Phy-LLO or Dol20-LLO, 10 mM MnCl2, 150 mM NaCl, 20 mM HEPES pH 7.5, 0.035% DDM, 0.007% CHS and 20 µM of the acceptor peptide (for STT3A: 5CF-GSDANYTYTQ (SEQ ID No 33), for STT3B: 5CF-GSLANYTK (SEQ ID No 34)), and incubating at 30°C. 1 µL samples were taken at different time points and diluted in 10% ACN, 10 mM phosphate buffer pH 7. Samples were analyzed by reverse-phase chromatography using a UPLC Dionex UltiMate 3000 with an Accucore 150-C18 100 × 2.1 mm 2.6 µm column (Thermo Fisher Scientific)40. Peaks for glycopeptide and peptide were integrated using the Software ChromeleonTM, and the amount of produced glycopeptide was determined for each data point. Turnover rate determination was performed by fitting of the data to linear regression using PRISM software.

Row | Substance | completion of the glycosylation reaction (TbSTT3B) | turnover rate of glycosylation (TbSTT3A) | turnover rate (TbSTT3B; compared to Dol20-PP-GlcNAc2Man9 as substrate, 100 nM TbSTT3B, 15 µM LLO, 20 µM 5CF-GSLANYTK, 30°C, Figure 3B)
1 | Dol20-PP-GlcNAc2Man9 [reference compound] | went to completion | – | –
2 | phy-PP-GlcNAc2Man5 | – | almost identical | –
3 | phy-PP-GlcNAc2Man9 | went to completion | – | somewhat slower
